Laboratory results taken from patent publication US20240150287A1, “N-(BENZOYL)-PHENYLALANINE COMPOUND, PHARMACEUTICAL COMPOSITION CONTAINING SAME, AND USE THEREOF” (Hangzhou Apeloa Medicine Research Institute Co., Ltd., priority 2021, published 2024).

Biological target: recombinant human integrin α4β7 (binding to recombinant human MAdCAM-1) (Homo sapiens (Human), UniProt P13612+P26010)
Test: MAdCAM-1/α4β7 integrin binding inhibition activity evaluation test (α4β7-MAdCAM-1 ELISA)
Details: plate-coated recombinant human MAdCAM-1, recombinant human α4β7, 2 h room temperature, free form of compound
Procedure: EXAMPLE: MADCAM-1/α4β7 INTEGRIN BINDING INHIBITION ACTIVITY EVALUATION TEST (α4β7-MADCAM-1 ELISA)
Coat the 96-well microplate (Costar) with 50 μL of recombinant human MAdCAM-1 (R&D Systems) solution per well, and incubate overnight (12-18 hours) at 4° C. Wash three times with 150 μL of TBS buffer per well. Block plate with 150 μL per well with blocking buffer for 1 h at 37° C. Wash three times with 150 μL of TBS buffer per well. Dilute the recombinant human integrin α4β7 (R&D Systems) with TBS buffer containing 0.1% bovine serum albumin (BSA), then add to the 96 well plate with 50 μL per well. Add 1 μL of test compound or DMSO, cover, incubate at room temperature for 2 h, wash three times with 150 μL of TBS buffer per well. Dilute the anti-β7 antibody (R&D Systems) with 0.1% BSA TBS buffer, then add to the 96 well plate with 50 μL per well, cover, incubate at room temperature for 1 h, wash three times with 150 μL of TBS buffer per well. Add 50 μL of streptavidin-HRP (R&D Systems) per well, incubate at room temperature for 20 min, wash three times with 150 μL of TBS buffer per well. Add 50 μL of TMB substrate solution (Sigma) per well, incubate at room temperature for 5-30 min, and add 25 μL of stop solution per well to stop the reaction. Finally, measure absorbance at 450 nm with microplate reader (SpectraMax 340PC. Molecular Devices). Repeat the test to find the binding rate of cells at each concentration when the absorbance of the well without the test substance is used as 100%, and calculate the concentration IC50 that causes 50% binding inhibition and summarize the results in Table 1.
It should be stated that, as a test compound, the free form of the compound synthesized in the above examples is used.

recombinant human integrin α4β7 (binding to recombinant human MAdCAM-1), sequence (P13612 34-970): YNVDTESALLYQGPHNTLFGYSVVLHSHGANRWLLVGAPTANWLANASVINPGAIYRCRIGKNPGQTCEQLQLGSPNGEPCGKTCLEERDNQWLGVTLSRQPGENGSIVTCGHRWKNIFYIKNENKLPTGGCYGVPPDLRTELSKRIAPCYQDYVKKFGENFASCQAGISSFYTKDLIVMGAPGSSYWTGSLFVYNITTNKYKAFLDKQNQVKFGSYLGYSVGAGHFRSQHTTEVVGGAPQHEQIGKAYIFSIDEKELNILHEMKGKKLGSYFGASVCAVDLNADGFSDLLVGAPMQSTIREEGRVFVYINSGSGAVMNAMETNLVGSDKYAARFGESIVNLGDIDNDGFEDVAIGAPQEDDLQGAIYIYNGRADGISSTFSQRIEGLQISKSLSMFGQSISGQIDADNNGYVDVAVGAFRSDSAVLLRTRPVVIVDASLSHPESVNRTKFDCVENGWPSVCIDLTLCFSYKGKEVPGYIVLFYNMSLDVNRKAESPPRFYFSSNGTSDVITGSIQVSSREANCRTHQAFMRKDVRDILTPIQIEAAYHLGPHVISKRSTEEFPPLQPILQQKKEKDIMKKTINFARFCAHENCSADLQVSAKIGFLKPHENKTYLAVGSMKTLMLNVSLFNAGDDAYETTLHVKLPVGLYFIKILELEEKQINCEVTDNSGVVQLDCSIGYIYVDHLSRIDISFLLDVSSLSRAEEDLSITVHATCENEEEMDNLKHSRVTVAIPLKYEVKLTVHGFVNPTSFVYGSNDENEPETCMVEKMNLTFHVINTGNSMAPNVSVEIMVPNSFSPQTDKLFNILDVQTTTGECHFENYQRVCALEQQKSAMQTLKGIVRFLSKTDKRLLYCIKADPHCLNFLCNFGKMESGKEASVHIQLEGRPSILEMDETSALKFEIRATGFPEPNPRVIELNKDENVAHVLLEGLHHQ
recombinant human integrin α4β7 (binding to recombinant human MAdCAM-1), sequence (P26010 20-723): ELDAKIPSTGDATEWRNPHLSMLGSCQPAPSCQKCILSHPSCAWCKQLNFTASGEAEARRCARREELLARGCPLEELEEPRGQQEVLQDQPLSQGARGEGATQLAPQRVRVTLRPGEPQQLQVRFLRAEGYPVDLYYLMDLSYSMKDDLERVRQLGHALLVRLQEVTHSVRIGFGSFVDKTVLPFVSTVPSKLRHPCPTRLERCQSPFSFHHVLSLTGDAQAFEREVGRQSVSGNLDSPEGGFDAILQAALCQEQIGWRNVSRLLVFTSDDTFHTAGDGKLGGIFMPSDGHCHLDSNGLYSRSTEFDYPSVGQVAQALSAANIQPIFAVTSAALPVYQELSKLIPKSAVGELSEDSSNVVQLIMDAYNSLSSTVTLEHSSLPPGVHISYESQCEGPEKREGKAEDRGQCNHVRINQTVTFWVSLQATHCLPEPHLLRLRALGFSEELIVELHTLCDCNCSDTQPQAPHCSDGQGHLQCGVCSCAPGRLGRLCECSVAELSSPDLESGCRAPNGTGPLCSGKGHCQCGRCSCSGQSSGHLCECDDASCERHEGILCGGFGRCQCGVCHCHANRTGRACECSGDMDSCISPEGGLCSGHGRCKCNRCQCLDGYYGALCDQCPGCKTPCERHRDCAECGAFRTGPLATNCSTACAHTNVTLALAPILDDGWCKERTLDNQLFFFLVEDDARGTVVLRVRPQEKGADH

Compound | IC50 [nM]
O=C(N[C@@H](Cc1ccc(N2C(=O)C3(CC3)c3cccc(Cl)c32)cc1)C(=O)O)c1c(F)cccc1Cl [Example 2, (S)-3-(4-(7′-chloro-2′-oxospiro[cyclopropane-1,3′-indoline]-1′-yl)phenyl)-2-(2-chloro-6-fluorobenzamide) propionic acid] | 2.57
COc1cccc2c1N(c1ccc(C[C@H](NC(=O)c3c(Cl)cccc3Cl)C(=O)O)cc1)C(=O)C21CC1 [Example 3, (S)-2-(2,6-dichlorobenzamido)-3-(4-(7′-methoxy-2′-oxospiro[cyclopropane-1,3′-indoline]-1′-yl)phenyl)propionic acid] | 5.48
O=C(N[C@@H](Cc1ccc(N2C(=O)C3(CC3)c3cccc(F)c32)cc1)C(=O)O)c1c(Cl)cccc1Cl [Example 5, (S)-2-(2,6-dichlorobenzoylamino)-3-(4-(7′-fluoro-2′-oxospiro[cyclopropane-1,3′-indoline]-1′-yl)phenyl)propionic acid] | 2.87
O=C(N[C@@H](Cc1ccc(N2C(=O)C3(CC3)c3ccccc32)cc1)C(=O)O)c1c(Cl)cccc1Cl [Example 6, (S)-2-(2,6-dichlorobenzamido)-3-(4-(2′-oxospiro[cyclopropane-1,3′-indoline]-1′-yl)phenyl)propionic acid] | 5.81
CC1(C)C(=O)N(c2ccc(C[C@H](NC(=O)c3c(F)cccc3Cl)C(=O)O)cc2)c2c(Cl)cccc21 [Example 10, (S)-3-(4-(7-chloro-3,3-dimethyl-2-oxoindoline-1-yl)phenyl)-2-(2-chloro-6-fluorobenzamide)propionic acid] | 38.8
CN(C)c1cc2c(cc1F)C1(CC1)C(=O)N2c1ccc(C[C@H](NC(=O)c2c(F)cccc2Cl)C(=O)O)cc1 [Example 11, (S)-2-(2-chloro-6-fluorobenzamide)-3-(4-(6′-(dimethylamino)-5′-fluoro-2′-oxospiro[cyclopropane-1,3′-indoline]-1′-yl)phenyl)propionic acid] | 3.05
CN(C)c1ccc2c(c1)C1(CC1)C(=O)N2c1ccc(C[C@H](NC(=O)c2c(F)cccc2Cl)C(=O)O)cc1 [Example 12, (S)-2-(2-chloro-6-fluorobenzamide)-3-(4-(5′-(dimethylamino)-2′-oxospiro[cyclopropane-1,3′-indoline]-1′-yl)phenyl)propionic acid] | 4.15
O=C(N[C@@H](Cc1ccc(N2C(=O)C3(CC3)c3ccc(F)cc32)cc1)C(=O)O)c1c(F)cccc1Cl [Example 13] | 8.02
O=C(N[C@@H](Cc1ccc(N2C(=O)C3(CC3)c3ccc(F)c(F)c32)cc1)C(=O)O)c1c(F)cccc1Cl [Example 15, (S)-2-(2-chloro-6-fluorobenzamide)-3-(4-(6′,7′-difluoro-2′-oxospirino[cyclopropane-1,3′-indoline]-1′-yl)phenyl)propionic acid] | 5.62
O=C(N[C@@H](Cc1ccc(N2C(=O)C3(CC3)c3cccnc32)cc1)C(=O)O)c1c(Cl)cccc1Cl [Example 16, (S)-2-(2,6-dichlorobenzamido)-3-(4-(2′-oxospiro[cyclopropane-1,3′-pyrrolo[2,3-b]pyridine]-1′(2′H)-yl)phenyl)propionic acid] | 0.75
O=C(N[C@@H](Cc1ccc(N2C(=O)C3(CC3)c3cccc(Cl)c32)cc1)C(=O)O)c1c(Cl)cc(Cl)cc1Cl [Example 17, (S)-3-(4-(7′-chloro-2′-oxospiro[cyclopropane-1,3′-indoline]-1′-yl)phenyl)-2-(2,4,6-trichlorobenzoylamino)propionic acid] | 64.2
O=C(N[C@@H](Cc1ccc(N2C(=O)C3(CC3)c3cccc(Cl)c32)cc1)C(=O)O)c1c(Cl)cc(N2CCC(N3CCOCC3)CC2)cc1Cl [Example 21, (S)-3-(4-(7′-chloro-2′-oxospiro[cyclopropane-1,3′-indoline]-1′-yl)phenyl)-2-(2,6-dichloro-4-(4-morpholinopiperidin-1-yl)benzoylamino)propionic acid] | 23.7
Cn1c(=O)n(-c2ccc(C[C@H](NC(=O)c3c(F)cccc3Cl)C(=O)O)cc2)c2c(Cl)cccc21 [Example 22, (S)-3-(4-(7-chloro-3-methyl-2-oxo-2,3-dihydro-1H-benzo-1H-imidazol-1-yl)phenyl)-2-(2-chloro-6-fluorobenzamide)propionic acid] | 1.19
O=C(N[C@@H](Cc1ccc(-n2c(=O)n(C3CC3)c3cc(Cl)ccc32)cc1)C(=O)O)c1c(Cl)cccc1Cl [Example 23, (S)-3-(4-(5-chloro-3-cyclopropyl-2-oxo-2,3-dihydro-1H-benzo[d]imidazol-1-yl)phenyl)-2-(2,6-dichlorobenzamido)propionic acid] | 143
O=C(N[C@@H](Cc1ccc(-n2c(=O)n(C3CC3)c3ccc(Cl)cc32)cc1)C(=O)O)c1c(Cl)cccc1Cl [Example 24, (S)-3-(4-(6-chloro-3-cyclopropyl-2-oxo-2,3-dihydro-1H-benzo[d]imidazol-1-yl)phenyl)-2-(2,6-dichlorobenzamido)propionic acid] | 5.67
Cn1c(=S)n(-c2ccc(C[C@H](NC(=O)c3c(F)cccc3Cl)C(=O)O)cc2)c2c(Cl)cccc21 [Example 26, (S)-3-(4-(7-chloro-3-methyl-2-thio-2,3-dihydro-1H-benzo[d]imidazol-1-yl)phenyl)-2-(2-chloro-6-fluorobenzoylamino)propionic acid] | 160
O=C(N[C@@H](Cc1ccc(-n2c(=O)n(C3CC3)c3cccc(F)c32)cc1)C(=O)O)c1c(F)cccc1Cl [Example 27, (S)-2-(2-chloro-6-fluorobenzoylamino)-3-(4-(3-cyclopropyl-7-fluoro-2-oxo-2,3-dihydro-1H-benzo [d]imidazol-1-yl)phenyl)propionic acid] | 8.81
O=C(N[C@@H](Cc1ccc(-n2c(=O)n(C3CCOCC3)c3cccc(Cl)c32)cc1)C(=O)O)c1c(F)cccc1Cl [Example 28, (S)-3-(4-(7-chloro-2-oxo-3-(tetrahydro-2H-pyran-4-yl)-2,3-dihydro-1H-benzo[d]imidazol-1-yl)phenyl)-2-(2-chloro-6-fluorobenzoylamino)propionic acid] | 10.9

The remaining molecules from weak to strong by IC50, led by results:

IC50 [nM] | Compound
95.5 | O=C(N[C@@H](Cc1ccc(N2C(=O)C3(CC3)c3cc(F)ccc32)cc1)C(=O)O)c1c(F)cccc1Cl [Example 9, (S)-2-(2-chloro-6-fluorobenzamide)-3-(4-(5′-fluoro-2′-oxospiro[cyclopropane-1,3′-indoline]-1′-yl)phenyl)propionic acid]
17.6 | O=C(N[C@@H](Cc1ccc(N2C(=O)C3(CC3)c3cc(F)c(Cl)cc32)cc1)C(=O)O)c1c(F)cccc1Cl [Example 8, (S)-3-(4-(6′-chloro-5′-fluoro-2′-oxospiro[cyclopropane-1,3′-indoline]-1′-yl)phenyl)-2-(2-chloro-6-fluorobenzamide)propionic acid]
16.1 | O=C(N[C@@H](Cc1ccc(N2C(=O)C3(CCOCC3)c3cccc(Cl)c32)cc1)C(=O)O)c1c(F)cccc1Cl [Example 7, (S)-3-(4-(7-chloro-2-oxo-2′,3′,5′,6′-tetrahydrospiro[indoline-3,4′-pyran]-1-yl)phenyl)-2-(2-chloro-6-fluorobenzamide)propionic acid]
14.3 | O=C(N[C@@H](Cc1ccc(N2C(=O)C3(CC3)c3cc(F)c(F)cc32)cc1)C(=O)O)c1c(F)cccc1Cl [Example 1, (S)-2-(2-chloro-6-fluorobenzamide)-3-(4-(5′,6′-difluoro-2′-oxospirino[cyclopropane-1,3′-indoline]-1′-yl)phenyl)propionic acid]
11.4 | O=C(N[C@@H](Cc1ccc(N2C(=O)C3(CC3)c3cccc(Cl)c32)cc1)C(=O)O)c1c(Cl)cc(N2CCOCC2)cc1Cl [Example 19, (S)-3-(4-(7′-chloro-2′-oxospiro[cyclopropane-1,3′-indoline]-1′-yl)phenyl)-2-(2,6-dichloro-4-morpholinobenzoylamino)propionic acid]
7.5 | O=C(N[C@@H](Cc1ccc(-n2c(=O)n(C3CC3)c3cccc(Cl)c32)cc1)C(=O)O)c1c(Cl)cccc1Cl [Example 25, (S)-3-(4-(7-chloro-3-cyclopropyl-2-oxo-2,3-dihydro-1H-benzo[d]imidazol-1-yl)phenyl)-2-(2,6-dichlorobenzamido)propionic acid]
6.21 | O=C(N[C@@H](Cc1ccc(N2C(=O)C3(CC3)c3cccc(F)c32)cc1)C(=O)O)c1c(F)cccc1Cl [Example 14, (S)-2-(2-chloro-6-fluorobenzamide)-3-(4-(7-fluoro-2′-oxospiro[cyclopropane-1,3′-indoline]-1′-yl)phenyl)propionic acid]
4.15 | O=C(N[C@@H](Cc1ccc(N2C(=O)C3(CC3)c3cccc(Cl)c32)cc1)C(=O)O)c1c(Cl)cc(N2CC3CC2CO3)cc1Cl (stereo partly drawn) [Example 20]
2.54 | O=C(N[C@@H](Cc1ccc(N2C(=O)C3(CC3)c3ccc(F)cc32)cc1)C(=O)O)c1c(Cl)cccc1Cl [Example 4, (S)-2-(2,6-dichlorobenzamido)-3-(4-(6′-fluoro-2′-oxospiro[cyclopropane-1,3′-indoline]-1′-yl)phenyl)propionic acid]
